# Measurements reported in patent US20250243160A1, “INDOLE DERIVATIVES FOR TARGETING AUTOPHAGY” (Automera PTE. LTD, priority 2024, published 2025).
# Experiments:
# [1] = target: T1, p62 oligomers (Homo sapiens, UniProt Q13501); experiment: p62 oligomerization assay by Western blot in HeLa cells; type: cell-based; details: 24 hours treatment, relative to vehicle control (DMSO)
# T1 construct: endogenous in cells; host or cells: HeLa
# Procedure: (§1) HeLa cells were seeded in 6-well plates (700,000 cells) and allowed to adhere overnight. Media was replaced one hour before administering either vehicle (DMSO) or test compounds. After 24 hours of treatment, the media was discarded, and cells were rinsed once with ice-cold 1×PBS before detached from plates with ice-cold RIPA Lysis and Extraction Buffer (Thermo Fisher Scientific) which was supplemented with protease and phosphatase inhibitors. The resulting cell suspensions were transferred to pre-chilled microcentrifuge tubes, incubated on ice for 20 min with intermittent mixing and then centrifuged at 12,000 rpm for 20 min at 4° C. The supernatants were then aspirated slowly and transferred into new tubes kept on ice. The protein concentration in the samples was determined using BCA kit (Thermo Fisher Scientific) as per manufacturer's instructions.
# (§2) For the p62 oligomerization and LC3 lipidation assays, cell lysates were prepared using RIPA buffer supplemented with 2% SDS and benzonase (Sigma). The lysates were then combined with 4× Laemmli protein sample buffer (Bio-Rad), heated at 70° C. for 10 min and subjected to a brief centrifugation of 10-15 seconds.
# (§3) For p62 oligomerization and LC3 lipidation assays, lysates containing 30 μg of protein and for BRD4 and FKBP12(F36V) degradation assays, lysates containing 20 μg of protein, were loaded slowly into the wells of 4-20% gradient Tris-glycine gels (Bio-Rad). The gels were run at 100V until completion and transferred onto PVDF membranes. Membranes were blocked using 5% milk in TBS-Tween (0.1%) buffer at room temperature for 1 hour. The membranes were incubated with primary antibody in 5% milk-TBST with shaking, overnight at 4° C. The primary antibodies used were: p62 (Novus Biologicals 2C11, H00008878-MO1), LC3A/B (Cell Signalling Technology D3U4C, 12741S), FKBP12 (Abcam ab24373), BRD4 (Cell Signalling Technology E2A7X, 13440S), GAPDH (Cell Signalling Technology D4C6R, 97166S), and β-Actin (Proteintech 66009-1-Ig). Following primary antibody incubation, membranes were washed thrice with TBST 10 min before and after incubation with secondary-HRP conjugated antibody in 5% milk-TBST for 1 hour at room temperature. The secondary antibodies used were: Anti-Mouse IgG HRP Conjugate (Promega W4021B) and Anti-Rabbit IgG HRP Conjugate (Promega W4011). For the p62 oligomerization assay, the total protein levels were assessed using Ponceau staining (Thermo Fisher Scientific) of PVDF membrane as per recommendation by manufacturer's guidelines.
# (§4) Imaging was acquired using SuperSignal™ West Pico PLUS Chemiluminescent Substrate (Thermo Fisher Scientific) with iBright Invitrogen FL100 imaging system. Band signal intensity, reflective of protein concentrations, were quantified using Invitrogen™ iBright™ Analysis and Image J software.
# HeLa cells were treated with compounds for 24 hours to evaluate the effect of these compounds on p62 oligomerisation activity. The resulting changes in levels of p62 oligomers were assessed by Western blotting, as described in experimental procedures. The fold change of p62 oligomer levels induced by compound treatment relative to vehicle control (DMSO) was determined and summarized in Table 8. Specifically, FIGS. 2A-C show Western blot images and their corresponding quantification showing the levels of high molecular weight (100-200 kDa) p62 oligomers by 24 hours compound treatments at listed concentrations, relative to vehicle control (DMSO) in HeLa cells. Protein loading consistencies was assessed by Ponceau staining (not shown).
# [2] = system: LC3 protein; experiment: LC3 lipidation (LC3-II/LC3-I) assay by Western blot in HeLa cells; type: cell-based; details: 24 hours treatment, relative to vehicle control (DMSO)
# Procedure: as §1, §2, §3, §4
# HeLa cells were treated with compounds for 24 hours to evaluate the effect of these compounds on LC3-II/LC3-I levels, a measure of autophagy activation. The changes in levels of LC3-I, LC3-II and […] (loading control) were assessed by Western blotting, as described in experimental procedures. The fold increase of LC3-II/LC3-I levels induced by compound treatment relative to vehicle control (DMSO) was determined and summarized in Table 9. Specifically, FIGS. 3A-C show Western blot images and their corresponding quantification showing the lipidation levels of LC3 protein (LC3-II/LC3-I) by 24 hours compound treatments at listed concentrations, relative to vehicle control (DMSO) in HeLa cells.
# T1 sequence (Q13501 whole entry): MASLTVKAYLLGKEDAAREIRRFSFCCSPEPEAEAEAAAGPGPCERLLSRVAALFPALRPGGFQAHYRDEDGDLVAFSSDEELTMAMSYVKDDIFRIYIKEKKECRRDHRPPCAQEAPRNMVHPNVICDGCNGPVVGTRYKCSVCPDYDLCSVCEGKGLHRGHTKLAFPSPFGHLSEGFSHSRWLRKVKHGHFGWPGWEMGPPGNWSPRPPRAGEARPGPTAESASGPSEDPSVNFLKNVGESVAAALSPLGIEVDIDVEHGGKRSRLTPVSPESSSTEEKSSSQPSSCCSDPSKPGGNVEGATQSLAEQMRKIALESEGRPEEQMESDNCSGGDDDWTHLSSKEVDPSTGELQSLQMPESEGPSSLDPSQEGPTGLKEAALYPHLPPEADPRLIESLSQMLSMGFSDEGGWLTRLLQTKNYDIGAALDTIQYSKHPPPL
SMILES,p62 oligomerization (fold change of p62 oligomer levels) [1],LC3 lipidation (fold increase of LC3-II/LC3-I levels) [2]
"OCCNCc1cccc2c1ccn2Cc1ccccc1 [Compound 1, 2-(((1-benzyl-1H-indol-4-yl)methyl)amino)ethan-1-ol]",++ (>2-fold change relative to DMSO control),+ (<2-fold change in LC3-II/LC3-I relative to DMSO control)
OCCNCc1cc(F)cc2c1ccn2Cc1ccc(F)cc1 [Compound 44],++ (>2-fold change relative to DMSO control),++ (>2-fold change in LC3-II/LC3-I relative to DMSO control)
"OCCNCc1cc(F)cc2c1ccn2Cc1ccc(Cl)cc1 [Compound 45, 2-(((1-(4-chlorobenzyl)-6-fluoro-1H-indol-4-yl)methyl)amino)ethan-1-ol]",++ (>2-fold change relative to DMSO control),++ (>2-fold change in LC3-II/LC3-I relative to DMSO control)
